Patent US20240059671A1, “TYROSINE KINASE 2 (TYK2) DEGRADATION COMPOUNDS AND METHODS OF USE” (CULLGEN (SHANGHAI), INC., priority 2020, published 2024)

Target: TYK2 (Homo sapiens, UniProt P29597)
Assay: TYK2 protein degradation in NOMO-1 cells by immunoblotting
Assay type: cell-based
Parameters: endogenous in cells
Details: NOMO-1 cells
Summary of the method: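 Read-out was densitometry of chemiluminescent TYK2 immunoblot bands from RIPA lysates after SDS-PAGE. Before lysis, NOMO-1 cells cultured in RPMI 1640 plus 10% FBS were treated for 16 h at 0.1, 1, 10, 100 and 1000 nM.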

Chain of TYK2 (P29597 whole entry): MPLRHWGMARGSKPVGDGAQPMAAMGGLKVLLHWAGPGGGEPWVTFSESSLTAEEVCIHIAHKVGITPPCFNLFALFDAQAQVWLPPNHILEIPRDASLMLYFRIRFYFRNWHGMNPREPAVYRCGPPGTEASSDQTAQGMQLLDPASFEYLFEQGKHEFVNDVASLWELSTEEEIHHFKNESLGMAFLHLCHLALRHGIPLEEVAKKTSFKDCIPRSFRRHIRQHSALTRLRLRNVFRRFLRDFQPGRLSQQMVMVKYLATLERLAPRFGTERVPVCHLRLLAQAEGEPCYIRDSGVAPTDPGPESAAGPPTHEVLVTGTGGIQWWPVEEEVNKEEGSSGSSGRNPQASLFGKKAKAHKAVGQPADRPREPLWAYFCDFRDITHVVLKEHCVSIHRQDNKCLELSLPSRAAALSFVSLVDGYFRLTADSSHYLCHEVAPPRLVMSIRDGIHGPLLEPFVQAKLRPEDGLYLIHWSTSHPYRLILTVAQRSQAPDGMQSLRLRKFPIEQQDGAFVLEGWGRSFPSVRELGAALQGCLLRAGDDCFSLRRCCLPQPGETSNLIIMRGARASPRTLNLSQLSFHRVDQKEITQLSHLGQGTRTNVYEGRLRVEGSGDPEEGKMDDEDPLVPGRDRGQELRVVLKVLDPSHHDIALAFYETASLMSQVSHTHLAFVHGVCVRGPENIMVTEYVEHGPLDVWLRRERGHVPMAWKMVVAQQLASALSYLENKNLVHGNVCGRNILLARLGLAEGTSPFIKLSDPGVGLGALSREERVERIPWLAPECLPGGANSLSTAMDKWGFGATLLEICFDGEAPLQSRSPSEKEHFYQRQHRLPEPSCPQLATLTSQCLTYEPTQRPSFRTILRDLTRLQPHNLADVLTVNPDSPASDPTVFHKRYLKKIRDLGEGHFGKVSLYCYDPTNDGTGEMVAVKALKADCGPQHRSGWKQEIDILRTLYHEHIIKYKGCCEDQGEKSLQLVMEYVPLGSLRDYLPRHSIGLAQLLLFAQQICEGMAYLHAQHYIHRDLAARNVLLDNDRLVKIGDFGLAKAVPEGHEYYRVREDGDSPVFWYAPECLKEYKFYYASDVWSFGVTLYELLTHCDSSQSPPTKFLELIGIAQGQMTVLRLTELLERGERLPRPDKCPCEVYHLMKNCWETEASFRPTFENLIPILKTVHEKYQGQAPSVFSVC

## CNC(=O)c1nnc(Nc2ccc(C#CC3CCN(C(=O)CCCCCCCCC(=O)N[C@H](C(=O)N4C[C@H](O)C[C@H]4C(=O)N[C@@H](C)c4ccc(-c5scnc5C)cc4)C(C)(C)C)CC3)cn2)cc1Nc1cccc(-c2ncn(C)n2)c1OC [CPD-121, 6-((5-((1-(10-(((S)-1-((2S,4R)-4-hydroxy-2-(((5)-1-(4-(4-methylthiazol-5-yl)phenyl)ethyl)carbamoyl)pyrrolidin-1-yl)-3,3-dimethyl-1-oxobutan-2-yl)amino)-10-oxodecanoyl)piperidin-4-yl)ethynyl)pyridin-2-yl)amino)-4-((2-methoxy-3-(1-methyl-1H-1,2,4-triazol-3-yl)phenyl)amino)-N-methylpyridazine-3-carboxamide]
  TYK2 Degradation (NOMO-1, 10 nM): A (A: ≥60% TYK2 degradation)
  TYK2 Degradation (NOMO-1, 100 nM): A (A: ≥60% TYK2 degradation)

## CNC(=O)c1nnc(Nc2ccc(C#CC3CN(C(=O)CCC(=O)N[C@H](C(=O)N4C[C@H](O)C[C@H]4C(=O)N[C@@H](C)c4ccc(-c5scnc5C)cc4)C(C)(C)C)C3)cn2)cc1Nc1cccc(-c2ncn(C)n2)c1OC [CPD-122, 6-((5-((1-(4-(((S)-1-((2S,4R)-4-Hydroxy-2-(((S)-1-(4-(4-methylthiazol-5-yl)phenyl)ethyl)carbamoyl)pyrrolidin-1-yl)-3,3-dimethyl-1-oxobutan-2-yl)amino)-4-oxobutanoyl)azetidin-3-yl)ethynyl)pyridin-2-yl)amino)-4-((2-methoxy-3-(1-methyl-1H-1,2,4-triazol-3-yl)phenyl)amino)-N-methylpyridazine-3-carboxamide]
  TYK2 Degradation (NOMO-1, 100 nM): C (C: ≤20% TYK2 degradation)

## CNC(=O)c1nnc(Nc2ccc(C#CC3CN(C(=O)CCCCC(=O)N[C@H](C(=O)N4C[C@H](O)C[C@H]4C(=O)N[C@@H](C)c4ccc(-c5scnc5C)cc4)C(C)(C)C)C3)cn2)cc1Nc1cccc(-c2ncn(C)n2)c1OC [CPD-123, 6-((5-((1-(6-(((S)-1-((2S,4R)-4-Hydroxy-2-(((S)-1-(4-(4-methylthiazol-5-yl)phenyl)ethyl)carbamoyl)pyrrolidin-1-yl)-3,3-dimethyl-1-oxobutan-2-yl)amino)-6-oxohexanoyl)azetidin-3-yl)ethynyl)pyridin-2-yl)amino)-4-((2-methoxy-3-(1-methyl-1H-1,2,4-triazol-3-yl)phenyl)amino)-N-methylpyridazine-3-carboxamide]
  TYK2 Degradation (NOMO-1, 10 nM): B (B: <60% TYK2 degradation, and >20% TYK2 degradation)
  TYK2 Degradation (NOMO-1, 100 nM): A (A: ≥60% TYK2 degradation)

## CNC(=O)c1nnc(Nc2ccc(C#CC3CN(C(=O)CCCCCC(=O)N[C@H](C(=O)N4C[C@H](O)C[C@H]4C(=O)N[C@@H](C)c4ccc(-c5scnc5C)cc4)C(C)(C)C)C3)cn2)cc1Nc1cccc(-c2ncn(C)n2)c1OC [CPD-124, 6-((5-((1-(7-(((S)-1-((2S,4R)-4-hydroxy-2-(((S)-1-(4-(4-methylthiazol-5-yl)phenyl)ethyl)carbamoyl)pyrrolidin-1-yl)-3,3-dimethyl-1-oxobutan-2-yl)amino)-7-oxoheptanoyl)azetidin-3-yl)ethynyl)pyridin-2-yl)amino)-4-((2-methoxy-3-(1-methyl-1H-1,2,4-triazol-3-yl)phenyl)amino)-N-methylpyridazine-3-carboxamide]
  TYK2 Degradation (NOMO-1, 10 nM): A (A: ≥60% TYK2 degradation)
  TYK2 Degradation (NOMO-1, 100 nM): A (A: ≥60% TYK2 degradation)

## CNC(=O)c1nnc(Nc2ccc(C#CC3CN(C(=O)CCCCCCC(=O)N[C@H](C(=O)N4C[C@H](O)C[C@H]4C(=O)N[C@@H](C)c4ccc(-c5scnc5C)cc4)C(C)(C)C)C3)cn2)cc1Nc1cccc(-c2ncn(C)n2)c1OC [CPD-125, 6-((5-((1-(8-(((S)-1-((2S,4R)-4-hydroxy-2-(((S)-1-(4-(4-methylthiazol-5-yl)phenyl)ethyl)carbamoyl)pyrrolidin-1-yl)-3,3-dimethyl-1-oxobutan-2-yl)amino)-8-oxooctanoyl)azetidin-3-yl)ethynyl)pyridin-2-yl)amino)-4-((2-methoxy-3-(1-methyl-H-1,2,4-triazol-3-yl)phenyl)amino)-N-methylpyridazine-3-carboxamide]
  TYK2 Degradation (NOMO-1, 10 nM): A (A: ≥60% TYK2 degradation)
  TYK2 Degradation (NOMO-1, 100 nM): A (A: ≥60% TYK2 degradation)

## CNC(=O)c1nnc(Nc2ccc(C#CC3CN(C(=O)CCCCCCCC(=O)N[C@H](C(=O)N4C[C@H](O)C[C@H]4C(=O)N[C@@H](C)c4ccc(-c5scnc5C)cc4)C(C)(C)C)C3)cn2)cc1Nc1cccc(-c2ncn(C)n2)c1OC [CPD-126, 6-((5-((1-(9-(((S)-1-((2S,4R)-4-hydroxy-2-(((S)-1-(4-(4-methylthiazol-5-yl)phenyl)ethyl)carbamoyl)pyrrolidin-1-yl)-3,3-dimethyl-1-oxobutan-2-yl)amino)-9-oxononanoyl)azetidin-3-yl)ethynyl)pyridin-2-yl)amino)-4-((2-methoxy-3-(1-methyl-H-1,2,4-triazol-3-yl)phenyl)amino)-N-methylpyridazine-3-carboxamide]
  TYK2 Degradation (NOMO-1, 10 nM): A (A: ≥60% TYK2 degradation)
  TYK2 Degradation (NOMO-1, 100 nM): A (A: ≥60% TYK2 degradation)

## CNC(=O)c1nnc(Nc2ccc(C#CC3CN(C(=O)CCCCCCCCC(=O)N[C@H](C(=O)N4C[C@H](O)C[C@H]4C(=O)N[C@@H](C)c4ccc(-c5scnc5C)cc4)C(C)(C)C)C3)cn2)cc1Nc1cccc(-c2ncn(C)n2)c1OC [CPD-127, 6-((5-((1-(10-(((S)-1-((2S,4R)-4-hydroxy-2-(((S)-1-(4-(4-methylthiazol-5-yl)phenyl)ethyl)carbamoyl)pyrrolidin-1-yl)-3,3-dimethyl-1-oxobutan-2-yl)amino)-10-oxodecanoyl)azetidin-3-yl)ethynyl)pyridin-2-yl)amino)-4-((2-methoxy-3-(1-methyl-1H-1,2,4-triazol-3-yl)phenyl)amino)-N-methylpyridazine-3-carboxamide]
  TYK2 Degradation (NOMO-1, 10 nM): A (A: ≥60% TYK2 degradation)
  TYK2 Degradation (NOMO-1, 100 nM): A (A: ≥60% TYK2 degradation)

## CNC(=O)c1nnc(Nc2ccc(CNC(=O)CCC(=O)N[C@H](C(=O)N3C[C@H](O)C[C@H]3C(=O)N[C@@H](C)c3ccc(-c4scnc4C)cc3)C(C)(C)C)cn2)cc1Nc1cccc(-c2ncn(C)n2)c1OC [CPD-128, N1-((S)-1-((2S,4R)-4-Hydroxy-2-(((S)-1-(4-(4-methylthiazol-5-yl)phenyl)ethyl)carbamoyl)pyrrolidin-1-yl)-3,3-dimethyl-1-oxobutan-2-yl)-N4-((6-((5-((2-methoxy-3-(1-methyl-1H-1,2,4-triazol-3-yl)phenyl)amino)-6-(methylcarbamoyl)pyridazin-3-yl)amino)pyridin-3-yl)methyl)succinamide]
  TYK2 Degradation (NOMO-1, 100 nM): C (C: ≤20% TYK2 degradation)

## CNC(=O)c1nnc(Nc2ccc(CNC(=O)CCCCC(=O)N[C@H](C(=O)N3C[C@H](O)C[C@H]3C(=O)N[C@@H](C)c3ccc(-c4scnc4C)cc3)C(C)(C)C)cn2)cc1Nc1cccc(-c2ncn(C)n2)c1OC [CPD-129, N1-((S)-1-((2S,4R)-4-Hydroxy-2-(((S)-1-(4-(4-methylthiazol-5-yl)phenyl)ethyl)carbamoyl)pyrrolidin-1-yl)-3,3-dimethyl-1-oxobutan-2-yl)-N6-((6-((5-((2-methoxy-3-(1-methyl-1H-1,2,4-triazol-3-yl)phenyl)amino)-6-(methylcarbamoyl)pyridazin-3-yl)amino)pyridin-3-yl)methyl)adipamide]
  TYK2 Degradation (NOMO-1, 10 nM): C (C: ≤20% TYK2 degradation)
  TYK2 Degradation (NOMO-1, 100 nM): A (A: ≥60% TYK2 degradation)

## CNC(=O)c1nnc(Nc2ccc(CNC(=O)CCCCCC(=O)N[C@H](C(=O)N3C[C@H](O)C[C@H]3C(=O)N[C@@H](C)c3ccc(-c4scnc4C)cc3)C(C)(C)C)cn2)cc1Nc1cccc(-c2ncn(C)n2)c1OC [CPD-130, N1-((S)-1-((2S,4R)-4-Hydroxy-2-(((S)-1-(4-(4-methylthiazol-5-yl)phenyl)ethyl)carbamoyl)pyrrolidin-1-yl)-3,3-dimethyl-1-oxobutan-2-yl)-N7-((6-((5-((2-methoxy-3-(1-methyl-1H-1,2,4-triazol-3-yl)phenyl)amino)-6-(methylcarbamoyl)pyridazin-3-yl)amino)pyridin-3-yl)methyl)heptanediamide]
  TYK2 Degradation (NOMO-1, 100 nM): B (B: <60% TYK2 degradation, and >20% TYK2 degradation)

## CNC(=O)c1nnc(Nc2ccc(CNC(=O)CCCCCCC(=O)N[C@H](C(=O)N3C[C@H](O)C[C@H]3C(=O)N[C@@H](C)c3ccc(-c4scnc4C)cc3)C(C)(C)C)cn2)cc1Nc1cccc(-c2ncn(C)n2)c1OC [CPD-131, N1-((S)-1-((2S,4R)-4-hydroxy-2-(((S)-1-(4-(4-methylthiazol-5-yl)phenyl)ethyl)carbamoyl)pyrrolidin-1-yl)-3,3-dimethyl-1-oxobutan-2-yl)-N8-((6-((5-((2-methoxy-3-(1-methyl-1H-1,2,4-triazol-3-yl)phenyl)amino)-6-(methylcarbamoyl)pyridazin-3-yl)amino)pyridin-3-yl)methyl)octanediamide]
  TYK2 Degradation (NOMO-1, 10 nM): A (A: ≥60% TYK2 degradation)
  TYK2 Degradation (NOMO-1, 100 nM): A (A: ≥60% TYK2 degradation)

## CNC(=O)c1nnc(Nc2ccc(CNC(=O)CCCCCCCC(=O)N[C@H](C(=O)N3C[C@H](O)C[C@H]3C(=O)N[C@@H](C)c3ccc(-c4scnc4C)cc3)C(C)(C)C)cn2)cc1Nc1cccc(-c2ncn(C)n2)c1OC [CPD-132, N1-((S)-1-((2S,4R)-4-Hydroxy-2-(((S)-1-(4-(4-methylthiazol-5-yl)phenyl)ethyl)carbamoyl)pyrrolidin-1-yl)-3,3-dimethyl-1-oxobutan-2-yl)-N9-((6-((5-((2-methoxy-3-(1-methyl-1H-1,2,4-triazol-3-yl)phenyl)amino)-6-(methylcarbamoyl)pyridazin-3-yl)amino)pyridin-3-yl)methyl)nonanediamide]
  TYK2 Degradation (NOMO-1, 100 nM): A (A: ≥60% TYK2 degradation)
